Consider 28 molecules from patent US9321767B2, “Azabenzimidazoles as respiratory syncytial virus antiviral agents” (JANSSEN SCIENCES IRELAND UC, priority 2010, dated 2016).

One series deals with rgRSV224 virus. Description: microbe, parasite or virus in culture. The series is classed as cell-based, respiratory syncytial virus (RSV). The settings on record: read-out: RSV-wt_EC50. As for the experimental part: (§1) Black 96-well clear-bottom microtiter plates (Corning, Amsterdam, The Netherlands) were filled in duplicate using a customized robot system with serial 4-fold dilutions of compound in a final volume of 50 μl culture medium [RPMI medium without phenol red, 10% FBS, 0.04% gentamycin (50 mg/mL) and 0.5% DMSO]. Then, 100 μl of a HeLa cell suspension (5×10^4 cells/mL) in culture medium was added to each well followed by the addition of 50 μl rgRSV224 (MOI=0.02) virus in culture medium using a multidrop dispenser (Thermo Scientific, Erembodegem, Belgium). rgRSV224 virus is an engineered virus that includes an additional GFP gene (Hallak et al, 2000) and was in-licensed from the NIH (Bethesda, Md., USA). Medium, virus- and mock-infected controls were included in each test. Cells were incubated at 37° C. in a 5% CO2 atmosphere. Three days post-virus exposure, viral replication was quantified by measuring GFP expression in the cells by a MSM laser microscope (Tibotec, Beerse, Belgium). The EC50 was defined as the 50% inhibitory concentration for GFP expression. In parallel, compounds were incubated for three days in a set of white 96-well microtitier plates (Corning) and the cytotoxicity of compounds in HeLa cells was determined by measuring the ATP content of the cells using the ATPlite kit (PerkinElmer, Zaventem, Belgium) according to the manufacturer's instructions. The CC50 was defined as the 50% concentration for cytotoxicity.

Another series has as its system HeLa cells. Description: Cytotoxicity in HeLa cells, ATP content (ATPlite kit). Type of series: cell-based. On the procedure:
as §1

Where [1] appears, read: human respiratory syncytial virus, HeLa, 72 h.
Where [2] appears, read: HeLa cells, three days incubation, ATP content.

Where two headings read alike, the source gives them in different places.

For `CC(C)CCn1c(Cn2c(=O)n(C3CC3)c3ccncc32)nc2cc(B(O)O)cnc21` [Compound 23, 2-((1-cyclopropyl-2-oxo-1H-imidazo[4,5-c]pyridin-3(2H)-yl)methyl)-3-isopentyl-3H-imidazo[4,5-b]pyridin-6-ylboronic acid], the EC50 with rgRSV224 virus (setting [1]) turned out to be 645 nM. For the same molecule, the TOX-HELA_EC50 in the series on HeLa cells (setting [2]) was >98.3603 µM.
`CC(C)CCn1c(Cn2c(=O)n(C3CC3)c3ccncc32)nc2cc(Br)cnc21` [Compound 16, 3-((6-bromo-3-isopentyl-3H-imidazo[4,5-b]pyridin-2-yl)methyl)-1-cyclopropyl-1H-imidazo[4,5-c]pyridin-2(3H)-one]: in the series on rgRSV224 virus (setting [1]), the EC50 is 8.81 nM. Besides, the TOX-HELA_EC50 in the series with HeLa cells (setting [2]) is >98.3603 µM.
For `CC(C)CCn1c(Cn2c(=O)n(C3CC3)c3ccncc32)nc2cc(C#N)cnc21` [Compound 27, 2-((1-cyclopropyl-2-oxo-1H-imidazo[4,5-c]pyridin-3(2H)-yl)methyl)-3-isopentyl-3H-imidazo[4,5-b]pyridine-6-carbonitrile] the same measures were 34100 nM and >98.3603 µM.
`CC(C)CCn1c(Cn2c(=O)n(C3COC3)c3ccncc32)nc2cc(Br)cnc21` [Compound 18, 3-((6-bromo-3-isopentyl-3H-imidazo[4,5-b]pyridin-2-yl)methyl)-1-(oxetan-3-yl)-1H-imidazo[4,5-c]pyridin-2(3H)-one]: in the series with rgRSV224 virus (setting [1]), the EC50 was found to be 17.3 nM. Besides, in the series with HeLa cells (setting [2]), the TOX-HELA_EC50 was >9.836 µM.
In the case of `CC(C)CCn1c(Cn2c(=O)n(C3COC3)c3ccncc32)nc2ncccc21` [Compound 9, 3-((1-isopentyl-1H-imidazo[4,5-b]pyridin-2-yl)methyl)-1-(oxetan-3-yl)-1H-imidazo[4,5-c]pyridin-2(3H)-one], the EC50 in the series with rgRSV224 virus (setting [1]) stood at 58.1 nM. The TOX-HELA_EC50 in the series with HeLa cells (setting [2]) is >9.836 µM.
In the case of `CC(C)CCn1c(Cn2c(=O)n(C3CC3)c3ccncc32)nc2ccncc21` [Compound 34], the EC50 with rgRSV224 virus (setting [1]) came to 74 nM. Further, in the series on HeLa cells (setting [2]), the TOX-HELA_EC50 is >98.3603 µM.
As to `O=c1n(Cc2nc3ncccc3n2CCCCF)c2cnccc2n1C1CC1` [Compound 42, 1-cyclopropyl-3-((1-(4-fluorobutyl)-1H-imidazo[4,5-b]pyridin-2-yl)methyl)-1H-imidazo[4,5-c]pyridin-2(3H)-one], the EC50 in the series with rgRSV224 virus (setting [1]) is 5.2 nM. The TOX-HELA_EC50 in the series with HeLa cells (setting [2]) was >98.3603 µM.
For the molecule `O=c1n(Cc2nc3nc(Cl)ccc3n2CCCCO)c2cnccc2n1C1CC1` [Compound 14, 3-((5-chloro-1-(4-hydroxybutyl)-1H-imidazo[4,5-b]pyridin-2-yl)methyl)-1-cyclopropyl-1H-imidazo[4,5-c]pyridin-2(3H)-one], the EC50 with rgRSV224 virus (setting [1]) amounted to 6 nM. Moreover, in the series with HeLa cells (setting [2]), the TOX-HELA_EC50 was >9.84 µM.
`COCCCn1c(Cn2c(=O)n(C3CC3)c3ccncc32)nc2ncccc21` [Compound 10]: in the series on rgRSV224 virus (setting [1]), the EC50 worked out at 89.3 nM. The molecule also registered a TOX-HELA_EC50 in the series with HeLa cells (setting [2]) of 4.756 µM.
As to `COCCCn1c(Cn2c(=O)n(C3CC3)c3ccc(F)cc32)nc2ncccc21` [Compound 15, 1-cyclopropyl-5-fluoro-3-((1-(3-methoxypropyl)-1H-imidazo[4,5-b]pyridin-2-yl)methyl)-1H-benzo[d]imidazol-2(3H)-one], the EC50 in the series on rgRSV224 virus (setting [1]) was 220 nM. Besides, in the series on HeLa cells (setting [2]), the TOX-HELA_EC50 was >98.3603 µM.
Regarding `O=c1n(Cc2nc3c(Cl)nccc3n2CCCCOCc2ccccc2)c2cnccc2n1C1CC1` [Compound 38, 3-((1-(4-benzyloxy)butyl)-4-chloro-1H-imidazo[4,5-c]pyridin-2-yl)methyl-1-cyclopropyl-1H-imidazo[4,5-c]pyridin-2(3H)-one], in the series on rgRSV224 virus (setting [1]), the EC50 is 1480 nM. Besides, the TOX-HELA_EC50 in the series on HeLa cells (setting [2]) was >98.3603 µM.
`CC(C)CCn1c(Cn2c(=O)n(C3CC3)c3ccc(F)cc32)nc2nc(Cl)ccc21` [Compound 6, 3-((5-chloro-1-isopentyl-1H-imidazo[4,5-b]pyridin-2-yl)methyl)-1-cyclopropyl-5-fluoro-1H-benzo[d]imidazol-2(3H)-one]: the EC50 with rgRSV224 virus (setting [1]) amounted to 8.67 nM. Further, the TOX-HELA_EC50 in the series with HeLa cells (setting [2]) is >9.836 µM.
As for `COC(=O)c1cnc2c(c1)nc(Cn1c(=O)n(C3CC3)c3ccncc31)n2CCC(C)C` [Compound 26, methyl 2-((1-cyclopropyl-2-oxo-1H-imidazo[4,5-c]pyridin-3(2H)-yl)methyl)-3-isopentyl-3H-imidazo[4,5-b]pyridine-6-carboxylate], in the series on rgRSV224 virus (setting [1]), the EC50 came out at 8610 nM. Also, the TOX-HELA_EC50 with HeLa cells (setting [2]) is >98.3603 µM.
As for `O=c1n(Cc2nc3ncccc3n2CCCF)c2cnccc2n1C1CC1` [Compound 11], the EC50 in the series with rgRSV224 virus (setting [1]) turned out to be 90.9 nM. Further, in the series on HeLa cells (setting [2]), the TOX-HELA_EC50 is >9.836 µM.
With `O=c1n(Cc2nc3cc(F)cnc3n2CCCCO)c2cnccc2n1C1CC1` [Compound 22, 1-cyclopropyl-3-((6-fluoro-3-(4-hydroxybutyl)-3H-imidazo[4,5-b]pyridin-2-yl)methyl)-1H-imidazo[4,5-c]pyridin-2(3H)-one], the EC50 in the series on rgRSV224 virus (setting [1]) was found to be 403 nM. Also, the TOX-HELA_EC50 in the series with HeLa cells (setting [2]) is >9.836 µM.
As for `O=c1n(Cc2nc3ncccc3n2CCCC(F)(F)F)c2cnccc2n1C1CC1` [Compound 41, 1-cyclopropyl-3-((1-(4,4,4-trifluorobutyl)-1H-imidazo[4,5-b]pyridin-2-yl)methyl)-1H-imidazo[4,5-c]pyridin-2(3H)-one], in the series with rgRSV224 virus (setting [1]), the EC50 turned out to be 7.1 nM. Also, in the series on HeLa cells (setting [2]), the TOX-HELA_EC50 was >98.3603 µM.
As for `O=c1n(Cc2nc3cnccc3n2CCCCO)c2cnccc2n1C1CC1` [Compound 35], in the series with rgRSV224 virus (rgRSV224 in HeLa cells, three days post-virus exposure, GFP expression), the EC50 was determined as 79.5 nM. Besides, the TOX-HELA_EC50 in the series with HeLa cells is >98.3603 µM.
Regarding `O=c1n(Cc2nc3nc(Cl)ccc3n2CCCCF)c2cnccc2n1C1CC1` [Compound 40, 3-((5-chloro-1-(4-fluorobutyl)-1H-imidazo[4,5-b]pyridin-2-yl)methyl)-1-cyclopropyl-1H-imidazo[4,5-c]pyridin-2(3H)-one], the EC50 with rgRSV224 virus (setting [1]) was 2 nM. In addition, the TOX-HELA_EC50 in the series with HeLa cells (setting [2]) was >98.3603 µM.
As to `O=c1n(Cc2nc3cc(Br)cnc3n2CCCCO)c2cnccc2n1C1CC1` [Compound 19, 3-((6-bromo-3-(4-hydroxybutyl)-3H-imidazo[4,5-b]pyridin-2-yl)methyl)-1-cyclopropyl-1H-imidazo[4,5-c]pyridin-2(3H)-one], the EC50 in the series with rgRSV224 virus (setting [1]) stood at 19.1 nM. The TOX-HELA_EC50 in the series with HeLa cells (setting [2]) was >98.3603 µM.
On to `CC(C)CCn1c(Cn2c(=O)n(C3CC3)c3ccncc32)nc2cc(CN)cnc21` [Compound 17, 3-((6-(aminomethyl)-3-isopentyl-3H-imidazo[4,5-b]pyridine-2-yl)methyl)-1-cyclopropyl-1H-imidazo[4,5-c]pyridin-2(3H)-one], for which the EC50 in the series with rgRSV224 virus (setting [1]) stood at 11.8 nM. Further, in the series on HeLa cells (setting [2]), the TOX-HELA_EC50 was >98.3603 µM.
For `COCCCn1c(Cn2c(=O)n(C3COC3)c3ccncc32)nc2ncccc21` [Compound 12, 3-((1-(3-methoxypropyl)-1H-imidazo[4,5-b]pyridin-2-yl)methyl)-1-(oxetan-3-yl)-1H-imidazo[4,5-c]pyridin-2(3H)-one], in the series with rgRSV224 virus (setting [1]), the EC50 turned out to be 1940 nM. In addition, the TOX-HELA_EC50 in the series with HeLa cells (setting [2]) was >98.3603 µM.
Consider `CC(C)CCn1c(Cn2c(=O)n(C3CC3)c3ccncc32)nc2ncccc21` [Compound 5, 1-cyclopropyl-3-((1-isopentyl-1H-imidazo[4,5-b]pyridin-2-yl)methyl)-1H-imidazo[4,5-c]pyridin-2(3H)-one], for which the EC50 in the series on rgRSV224 virus (setting [1]) is 8.67 nM. Besides, the TOX-HELA_EC50 in the series on HeLa cells (setting [2]) is >98.3603 µM.
As for `CC(C)CCn1c(Cn2c(=O)n(C3CC3)c3ccc(F)cc32)nc2ncccc21` [Compound 8, 1-cyclopropyl-5-fluoro-3-((1-isopentyl-1H-imidazo[4,5-b]pyridin-2-yl)methyl)-1H-benzo[d]imidazol-2(3H)-one], the EC50 with rgRSV224 virus (setting [1]) was 15.9 nM. For the same molecule, the TOX-HELA_EC50 with HeLa cells (setting [2]) is >9.836 µM.
As for `CC(C)CCn1c(Cn2c(=O)n(C(C)C)c3ccnc(Cl)c32)nc2cccnc21` [Compound 25, 4-chloro-3-((3-isopentyl-3H-imidazo[4,5-b]pyridin-2-yl)methyl)-1-isopropyl-1H-imidazo[4,5-c]pyridin-2(3H)-one], the EC50 in the series on rgRSV224 virus (setting [1]) is 8270 nM. Moreover, in the series on HeLa cells (setting [2]), the TOX-HELA_EC50 is >24.5901 µM.
For `CC(C)CCn1c(Cn2c(=O)n(C(C)C)c3ccnc(C#N)c32)nc2cccnc21` [Compound 29, 3-((3-isopentyl-3H-imidazo[4,5-b]pyridin-2-yl)methyl)-1-isopropyl-2-oxo-2,3-dihydro-1H-imidazo[4,5-c]pyridine-4-carbonitrile] the same measures were > 98400 nM and >98.3603 µM.
For `CC(C)CCn1c(Cn2c(=O)n(C3CC3)c3ccccc32)nc2nc(Cl)ccc21` [Compound 13, 3-((5-chloro-1-isopentyl-1H-imidazo[4,5-b]pyridin-2-yl)methyl)-3-cyclopropyl-1H-benzo[d]imidazol-2(3H)-one], in that order: 2.3 nM and >9.84 µM.
On to `CC(C)CCn1c(Cn2c(=O)n(C3CC3)c3ccncc32)nc2cnccc21` [Compound 33], for which, in the series on rgRSV224 virus (setting [1]), the EC50 came out at 30.4 nM. Also, the TOX-HELA_EC50 with HeLa cells (setting [2]) is >98.3603 µM.
Regarding `CC(C)CCn1c(Cn2c(=O)n(C3CC3)c3ccccc32)nc2cnccc21` [Compound 31], the EC50 in the series with rgRSV224 virus (setting [1]) worked out at 5.4 nM. Moreover, the TOX-HELA_EC50 with HeLa cells (setting [2]) was >9.836 µM.
